Key:
[1] = tested on: Corn; assay: Corn growth, bacteria with plant-growth-promoting chemicals; assay type: in vivo; details: 2 weeks
Procedure: (§1) The selected strains were grown in minimal media (KH2PO4 3 g, Na2HPO4 6 g, NH4Cl 1 g, NaCl 0.50 g, MgSO4 7H2O 0.15 g, CaCl2 2H2O 0.013 g, and glucose 1 g, per L dry weight).

[2] = tested on: Soybeans; assay: Soybean growth, bacteria with plant-growth-promoting chemicals; assay type: in vivo; details: 2 weeks
Procedure: as §1

Row | Compound | Comparison to Uninoculated ([1]; corn height) [%] | Avg. Height (cm) ([1]; corn, with or without 2,3-butanediol or yeast extract) | Comparison to Uninoculated ([2]; soybean height) [%] | Avg. Height (cm) ([2]; soybeans, with or without glycerol, 2,3-butanediol or yeast extract)
1 | CC(O)C(C)O (stereo not shown) [Uninoculated and 2,3-butanediol, 2,3-butanediol] | 105.8 | 16.03 |  | 
2 | OCC(O)CO [Uninoculated and Glycerol, glycerol] |  |  | 109.8 | 12.34
